Key:
Type in all cases: in vivo
[1] = tested on: barnyardgrass (Echinochloa crus-galli); experiment: Test G Pre-Emergence Protocol; conditions: Echinochloa crus-galli, pre-emergence, 312 h, evaluated after 13 days; for pest or weed control at 15.625 g/ha: 15.625 g ai/ha, read-out: Barnyard grass damage rating (100=total damage to plant; 0=no damage to plant); for pest or weed control at 62.5 g/ha: 62.5 g ai/ha, 100=total damage to plant, 0=no damage to plant, read-out: plant damage rating, Barnyardgrass; for pest or weed control at 250 g/ha: 250 g ai/ha, read-out: Barnyardgrass damage rating (100=total damage to plant; 0=no damage to plant)
Summary of the method: (§1)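 Pots of seeds in standard soil were grown for one day in a glasshouse (24/16 °C day/night, 14 h light, 65% humidity), then sprayed with compound in acetone/water 50:50 with 0.5% Tween 20 at 15.625, 62.5 or 250 g/ha. Damage was scored after 13 days on a 0 (none) to 100 (total) scale.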

[2] = tested on: corn (Zea mays); experiment: Test G Pre-Emergence Protocol; conditions: Zea mays, pre-emergence, 312 h, evaluated after 13 days; for plant injury at 15.625 g/ha: 15.625 g ai/ha; for plant injury at 15.625 g/ha / plant injury at 250 g/ha: read-out: Corn damage rating (100=total damage to plant; 0=no damage to plant); for plant injury at 62.5 g/ha: 62.5 g ai/ha, 100=total damage to plant, 0=no damage to plant, read-out: plant damage rating, Corn; for plant injury at 250 g/ha: 250 g ai/ha
Summary of the method: as §1

[3] = tested on: giant foxtail (Setaria faberi); experiment: Test G Pre-Emergence Protocol; conditions: Setaria faberi, pre-emergence, 312 h, evaluated after 13 days; for pest or weed control at 15.625 g/ha: 15.625 g ai/ha; for pest or weed control at 15.625 g/ha / pest or weed control at 250 g/ha: read-out: Foxtail, Giant damage rating (100=total damage to plant; 0=no damage to plant); for pest or weed control at 62.5 g/ha: 62.5 g ai/ha, 100=total damage to plant, 0=no damage to plant, read-out: plant damage rating, Foxtail, Giant; for pest or weed control at 250 g/ha: 250 g ai/ha
Summary of the method: as §1

[4] = tested on: ivy-leaved morning glory (Ipomoea hederacea); experiment: Test G Pre-Emergence Protocol; conditions: Ipomoea, pre-emergence, 312 h, evaluated after 13 days; for pest or weed control at 15.625 g/ha: 15.625 g ai/ha, read-out: Morning-glory, Ivy-leaved damage rating (100=total damage to plant; 0=no damage to plant); for pest or weed control at 62.5 g/ha: 62.5 g ai/ha, 100=total damage to plant, 0=no damage to plant, read-out: plant damage rating, Morningglory, Ivy-leaved; for pest or weed control at 250 g/ha: 250 g ai/ha, read-out: Morningglory, Ivy-leaved damage rating (100=total damage to plant; 0=no damage to plant)
Summary of the method: as §1

[5] = tested on: redroot pigweed (Amaranthus retroflexus); experiment: Test G Pre-Emergence Protocol; conditions: Amaranthus retroflexus, pre-emergence, 312 h, evaluated after 13 days; for pest or weed control at 15.625 g/ha: 15.625 g ai/ha; for pest or weed control at 15.625 g/ha / pest or weed control at 250 g/ha: read-out: Pigweed, Redroot damage rating (100=total damage to plant; 0=no damage to plant); for pest or weed control at 62.5 g/ha: 62.5 g ai/ha, 100=total damage to plant, 0=no damage to plant, read-out: plant damage rating, Pigweed, Redroot; for pest or weed control at 250 g/ha: 250 g ai/ha
Summary of the method: as §1

[6] = tested on: velvetleaf (Abutilon theophrasti); experiment: Test G Pre-Emergence Protocol; conditions: Abutilon theophrasti, pre-emergence, 312 h, evaluated after 13 days; for pest or weed control at 15.625 g/ha: 15.625 g ai/ha; for pest or weed control at 15.625 g/ha / pest or weed control at 250 g/ha: read-out: Velvetleaf damage rating (100=total damage to plant; 0=no damage to plant); for pest or weed control at 62.5 g/ha: 62.5 g ai/ha, 100=total damage to plant, 0=no damage to plant, read-out: plant damage rating, Velvetleaf; for pest or weed control at 250 g/ha: 250 g ai/ha
Summary of the method: as §1

[7] = tested on: barnyardgrass (Echinochloa crus-galli); experiment: Test G Post-Emergence Protocol; conditions: Echinochloa crus-galli, post-emergence, 312 h; for pest or weed control at 15.625 g/ha: 15.625 g ai/ha, evaluated after 13 days (100=total damage to plant; 0=no damage to plant), read-out: Barnyardgrass damage rating; for pest or weed control at 62.5 g/ha: 62.5 g ai/ha, read-out: Barnyardgrass damage rating (100=total damage to plant; 0=no damage to plant); for pest or weed control at 62.5 g/ha / pest or weed control at 250 g/ha: evaluated after 13 days; for pest or weed control at 250 g/ha: 250 g ai/ha, read-out: damage to plant, Barnyardgrass (100=total damage to plant; 0=no damage to plant)
Summary of the method: (§2)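 Pot-grown seedlings, 8 days old, raised in a glasshouse at 24/16 °C day/night with 14 h light and 65% humidity, were sprayed post-emergence with test compound in acetone/water (50:50) plus 0.5% Tween 20 at 15.625, 62.5 or 250 g/ha. Damage was scored visually 13 days later on a 0–100 scale (100 = total damage).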

[8] = tested on: corn (Zea mays); experiment: Test G Post-Emergence Protocol; conditions: Zea mays, post-emergence, 312 h; for plant injury at 15.625 g/ha: 15.625 g ai/ha, evaluated after 13 days (100=total damage to plant; 0=no damage to plant), read-out: Corn damage rating; for plant injury at 62.5 g/ha: 62.5 g ai/ha, read-out: Corn damage rating (100=total damage to plant; 0=no damage to plant); for plant injury at 62.5 g/ha / plant injury at 250 g/ha: evaluated after 13 days; for plant injury at 250 g/ha: 250 g ai/ha, read-out: damage to plant, Corn (100=total damage to plant; 0=no damage to plant)
Summary of the method: as §2

[9] = tested on: giant foxtail (Setaria faberi); experiment: Test G Post-Emergence Protocol; conditions: Setaria faberi, post-emergence, 312 h; for pest or weed control at 15.625 g/ha: 15.625 g ai/ha, evaluated after 13 days (100=total damage to plant; 0=no damage to plant), read-out: Foxtail, Giant damage rating; for pest or weed control at 62.5 g/ha: 62.5 g ai/ha, read-out: Foxtail, Giant damage rating (100=total damage to plant; 0=no damage to plant); for pest or weed control at 62.5 g/ha / pest or weed control at 250 g/ha: evaluated after 13 days; for pest or weed control at 250 g/ha: 250 g ai/ha, read-out: damage to plant, Foxtail, Giant (100=total damage to plant; 0=no damage to plant)
Summary of the method: as §2

[10] = tested on: ivy-leaved morning glory (Ipomoea hederacea); experiment: Test G Post-Emergence Protocol; conditions: Ipomoea, post-emergence, 312 h; for pest or weed control at 15.625 g/ha: 15.625 g ai/ha, evaluated after 13 days (100=total damage to plant; 0=no damage to plant), read-out: Morningglory, Ivy-leaved damage rating; for pest or weed control at 62.5 g/ha: 62.5 g ai/ha, read-out: Morningglory, Ivy-leaved damage rating (100=total damage to plant; 0=no damage to plant); for pest or weed control at 62.5 g/ha / pest or weed control at 250 g/ha: evaluated after 13 days; for pest or weed control at 250 g/ha: 250 g ai/ha, read-out: damage to plant, Morningglory, Ivy-leaved (100=total damage to plant; 0=no damage to plant)
Summary of the method: as §2

[11] = tested on: redroot pigweed (Amaranthus retroflexus); experiment: Test G Post-Emergence Protocol; conditions: Amaranthus retroflexus, post-emergence, 312 h; for pest or weed control at 15.625 g/ha: 15.625 g ai/ha, evaluated after 13 days (100=total damage to plant; 0=no damage to plant), read-out: Pigweed, Redroot damage rating; for pest or weed control at 62.5 g/ha: 62.5 g ai/ha, read-out: Pigweed, Redroot damage rating (100=total damage to plant; 0=no damage to plant); for pest or weed control at 62.5 g/ha / pest or weed control at 250 g/ha: evaluated after 13 days; for pest or weed control at 250 g/ha: 250 g ai/ha, read-out: damage to plant, Pigweed, Redroot (100=total damage to plant; 0=no damage to plant)
Summary of the method: as §2

[12] = tested on: velvetleaf (Abutilon theophrasti); experiment: Test G Post-Emergence Protocol; conditions: Abutilon theophrasti, post-emergence, 312 h; for pest or weed control at 15.625 g/ha: 15.625 g ai/ha, evaluated after 13 days (100=total damage to plant; 0=no damage to plant), read-out: Velvetleaf damage rating; for pest or weed control at 62.5 g/ha: 62.5 g ai/ha, read-out: Velvetleaf damage rating (100=total damage to plant; 0=no damage to plant); for pest or weed control at 62.5 g/ha / pest or weed control at 250 g/ha: evaluated after 13 days; for pest or weed control at 250 g/ha: 250 g ai/ha, read-out: damage to plant, Velvetleaf (100=total damage to plant; 0=no damage to plant)
Summary of the method: as §2

Cc1cccnc1NC(=O)C1C(=O)N(C)CC1c1ccc(C(F)(F)F)cc1 (stereo not drawn) [Compound 1437]
pest or weed control at 15.625 g/ha [1]: 0% | pest or weed control at 62.5 g/ha [1]: 0% | pest or weed control at 250 g/ha [1]: 0% | plant injury at 15.625 g/ha [2]: 0% | plant injury at 62.5 g/ha [2]: 0% | plant injury at 250 g/ha [2]: 0% | pest or weed control at 15.625 g/ha [3]: 0% | pest or weed control at 62.5 g/ha [3]: 0% | pest or weed control at 250 g/ha [3]: 0% | pest or weed control at 15.625 g/ha [4]: 0% | pest or weed control at 62.5 g/ha [4]: 0% | pest or weed control at 250 g/ha [4]: 0% | pest or weed control at 15.625 g/ha [5]: 0% | pest or weed control at 62.5 g/ha [5]: 0% | pest or weed control at 250 g/ha [5]: 0% | pest or weed control at 15.625 g/ha [6]: 0% | pest or weed control at 62.5 g/ha [6]: 0% | pest or weed control at 250 g/ha [6]: 0% | pest or weed control at 15.625 g/ha [7]: 0% | pest or weed control at 62.5 g/ha [7]: 0% | pest or weed control at 250 g/ha [7]: 0% | plant injury at 15.625 g/ha [8]: 0% | plant injury at 62.5 g/ha [8]: 0% | plant injury at 250 g/ha [8]: 0% | pest or weed control at 15.625 g/ha [9]: 0% | pest or weed control at 62.5 g/ha [9]: 0% | pest or weed control at 250 g/ha [9]: 0% | pest or weed control at 15.625 g/ha [10]: 0% | pest or weed control at 62.5 g/ha [10]: 0% | pest or weed control at 250 g/ha [10]: 0% | pest or weed control at 15.625 g/ha [11]: 0% | pest or weed control at 62.5 g/ha [11]: 0% | pest or weed control at 250 g/ha [11]: 0% | pest or weed control at 15.625 g/ha [12]: 0% | pest or weed control at 62.5 g/ha [12]: 0% | pest or weed control at 250 g/ha [12]: 0%

CN1C[C@@H](c2ccc(C(F)(F)F)cc2)[C@H](C(=O)Nc2cccc(F)n2)C1=O [Compound 1489]
pest or weed control at 15.625 g/ha [1]: 0% | pest or weed control at 62.5 g/ha [1]: 0% | pest or weed control at 250 g/ha [1]: 0% | plant injury at 15.625 g/ha [2]: 0% | plant injury at 62.5 g/ha [2]: 0% | plant injury at 250 g/ha [2]: 0% | pest or weed control at 15.625 g/ha [3]: 0% | pest or weed control at 62.5 g/ha [3]: 0% | pest or weed control at 250 g/ha [3]: 0% | pest or weed control at 15.625 g/ha [4]: 0% | pest or weed control at 62.5 g/ha [4]: 0% | pest or weed control at 250 g/ha [4]: 0% | pest or weed control at 15.625 g/ha [5]: 0% | pest or weed control at 62.5 g/ha [5]: 0% | pest or weed control at 250 g/ha [5]: 100% | pest or weed control at 15.625 g/ha [6]: 0% | pest or weed control at 62.5 g/ha [6]: 0% | pest or weed control at 250 g/ha [6]: 0% | pest or weed control at 15.625 g/ha [7]: 0% | pest or weed control at 62.5 g/ha [7]: 0% | pest or weed control at 250 g/ha [7]: 30% | plant injury at 15.625 g/ha [8]: 10% | plant injury at 62.5 g/ha [8]: 10% | plant injury at 250 g/ha [8]: 40% | pest or weed control at 15.625 g/ha [9]: 0% | pest or weed control at 62.5 g/ha [9]: 0% | pest or weed control at 250 g/ha [9]: 40% | pest or weed control at 15.625 g/ha [10]: 0% | pest or weed control at 62.5 g/ha [10]: 0% | pest or weed control at 250 g/ha [10]: 0% | pest or weed control at 15.625 g/ha [11]: 0% | pest or weed control at 62.5 g/ha [11]: 0% | pest or weed control at 250 g/ha [11]: 10% | pest or weed control at 15.625 g/ha [12]: 0% | pest or weed control at 62.5 g/ha [12]: 0% | pest or weed control at 250 g/ha [12]: 0%

Source: US12077503B2, “Substituted cyclic amides and their use as herbicides” (FMC CORPORATION, priority 2015, dated 2024)
